Assay results taken from patent US20040261578A1, “Stable self-organizing plant-organism systems for remediating polluted soils and waters” (priority 2003, published 2004).

What was measured:
wheat seedlings = conditions: 15000 ppm Prussian blue; 4.5 cm in its absence
Source text: Ten wheat seeds were germinated in petri dishes containing approximately 50 g of grit sand. Each dish was moistened with plant nutrient solution in the presence or absence of 15000 ppm metallocyanide Prussian blue.

maize inbred line Mo17 = experiment: Shoot length of Mo17 after soil treatments and T22 seed treatment, Arkport sandy loam field soil; format: in vivo; conditions: no seed treatment, soil drenched with mefenoxam, seven days after planting
Procedure: Ten-day assays were conducted in larger boxes (5×11×11 cm). Four or five seeds, either treated or not treated with T22, were planted in each box and plants were grown for various lengths of time with 12 hr diurnal fluorescent lighting and were watered as needed. In some experiments, soils were autoclaved to examine maize growth responses in the absence of natural soil pathogens. In addition, some soils were drenched with mefenoxam ((R)-2-[2,6-dimethylphenyl)-methoxyacetylamino]-propionic acid methyl ester]; Subdue MAXX, Novartis, Research Triangle, NC) according to the manufacturer's directions.

Q: How did the “Mean root length of the wheat seedlings” value (wheat seedlings) turn out when `[C-]#N.[C-]#N.[C-]#N.[C-]#N.[C-]#N.[C-]#N.[C-]#N.[C-]#N.[C-]#N.[C-]#N.[C-]#N.[C-]#N.[C-]#N.[C-]#N.[C-]#N.[C-]#N.[C-]#N.[C-]#N.[Fe+2].[Fe+2].[Fe+2].[Fe+3].[Fe+3].[Fe+3].[Fe+3]` [Prussian blue, Fe4 [Fe(CN)6]3] was run?
A: 2.0 cm

Q: How did the Shoot length (maize inbred line Mo17) turn out when `COCC(=O)N(c1c(C)cccc1C)[C@H](C)C(=O)OC` [mefenoxam] was run?
A: 63ab xy mm
